These results are taken from BindingDB's records for doi:10.1021/acs.jmedchem.9b00966 (2019).

Data set [1] is described as follows: Reversal of P-gp mediated multidrug resistance in human DU145-TxR cells overexpressing P-gp assessed as potentiation of paclitaxel-induced cytotoxicity by measuring paclitaxel IC50 at 7 uM after 48 hrs by MTT assay (Rvb = 2120 nM).
Data set [2] in a line: Reversal of P-gp mediated multidrug resistance in human DU145-TxR cells overexpressing P-gp assessed as potentiation of paclitaxel-induced cytotoxicity by measuring paclitaxel IC50 at 10 uM after 48 hrs by MTT assay (Rvb = 2120 nM).
The nature of data set [3]: Reversal of P-gp mediated multidrug resistance in human DU145-TxR cells overexpressing P-gp assessed as potentiation of paclitaxel-induced cytotoxicity by measuring paclitaxel IC50 at 3 uM after 48 hrs by MTT assay (Rvb = 2120 nM).
A short description of data set [4]: Reversal of P-gp mediated multidrug resistance in human DU145-TxR cells overexpressing P-gp assessed as potentiation of paclitaxel-induced cytotoxicity by measuring paclitaxel IC50 at 5 uM after 48 hrs by MTT assay (Rvb = 2120 nM).

Turning to `Cc1cc(C)c(-c2cc(NC(=O)CSCC(=O)NC(c3ccccc3)c3ccccc3)n(-c3ccccc3)n2)cc1C`, the IC50 was found to be 16 nM in data set [1], 11 nM in data set [2], 160 nM in data set [3] and 56 nM in data set [4].
As for `Cc1cc(C)c(-c2cc(NC(=O)CSc3n[nH]c(C4CC4)n3)n(-c3ccccc3)n2)cc1C`, the IC50 in data set [1] worked out at 59 nM; in data set [2], 21 nM; in data set [3] it was 629 nM; in data set [4] it was 194 nM.
On to `Cc1cc(C)c(-c2cc(NC(=O)CSCC(=O)NC34CC5CC(CC(C5)C3)C4)n(-c3ccccc3)n2)cc1C`, for which the IC50 in data set [1] is 21 nM; in data set [2], 13 nM; in data set [3], 231 nM; in data set [4] it was 109 nM.
The corresponding values for `Cc1cc(C)c(-c2cc(NC(=O)CSCC(=O)Nc3ccc4ncsc4c3)n(-c3ccccc3)n2)cc1C` are 2.9 nM, 0.78 nM, 172 nM and 5.7 nM.
Take `Cc1cc(C)c(-c2cc(NC(=O)CSCC(=O)c3ccc4c(c3)Cc3ccccc3-4)n(-c3ccccc3)n2)cc1C`: the IC50 in data set [1] came out at 62 nM; in data set [2], 57 nM; in data set [3], 266 nM; in data set [4], 154 nM.
The like results for `Cc1cc(C)c(-c2cc(NC(=O)CSCC(=O)N3c4ccccc4CCc4ccccc43)n(-c3ccccc3)n2)cc1C` were, in that order, 6 nM, 4 nM, 164 nM and 52 nM.
The like results for `Cc1cc(C)c(-c2cc(NC(=O)CSCC(=O)Nc3ccc4ccccc4c3)n(-c3ccccc3)n2)cc1C` were, in that order, 7 nM, 2 nM, 153 nM and 46 nM.
The like results for `Cc1cc(C)c(-c2cc(NC(=O)CSc3cccc(NC(=O)c4cncc(Br)c4)c3)n(-c3ccccc3)n2)cc1C` were, in that order, 9 nM, 6 nM, 56 nM and 20 nM.
Turning to `COc1cc(NC(=O)CSCC(=O)Nc2cc(-c3cc(C)c(C)cc3C)nn2-c2ccccc2)cc(OC)c1OC`, the IC50 in data set [1] came out at 0.64 nM; in data set [2] it was 0.07 nM; in data set [3], 185 nM; in data set [4] it was 1.9 nM.
As for `Cc1cc(C)c(-c2cc(NC(=O)CSc3nnc4c(n3)[nH]c3ccccc34)n(-c3ccccc3)n2)cc1C`, the IC50 in data set [1] was 17 nM; in data set [2], 17 nM; in data set [3], 426 nM; in data set [4], 21 nM.
In the case of `Cc1cc(C)c(-c2cc(NC(=O)CSCC(=O)NCc3ccc(F)cc3)n(-c3ccccc3)n2)cc1C`, the IC50 was 192 nM in data set [1], 131 nM in data set [2], 458 nM in data set [3] and 379 nM in data set [4].
